Laboratory results from patent US11524948B2, “Prodrugs of alpha-ketoglutarate, alpha-ketobutyrate, alpha-ketoisovalerate, and alpha-ketoisohexanoate, and uses thereof” (The Regents of the University of California, priority 2018, dated 2022).
“Also recorded” adds a separate entry of the source.

Legend:
[1] = test system: mTORC1; test: Western blot of mTORC1 signaling in H9C2 rat cardiomyocytes; format: cell-based; conditions: H9C2 cells; for mTORC1 signaling (phosphorylation of mTORC1 targets S6K (T389), 4E-BP1 (S65), ULK1 (S757)): western blot, FIGS. 2A, 2B, 2C, 2F
Method: (§1) H9C2 rat cardiomyocyte cells were grown in DMEM media (ATCC #30-2002) supplemented with 10% FBS. Stock solutions of MJX series compounds were prepared in DMSO, while the stock solution of α-ketobutyrate was prepared in dH2O. Cells were seeded in the afternoon at 70-80% confluency and the next morning treated with the indicated concentrations of compounds for the indicated times. Cells were then washed with ice-cold PBS and immediately lysed on ice with RIPA buffer. Lysates were clarified at 18,000 g at 4° C., the supernatants transferred to new tubes, mixed with […] of 5×SDS-PAGE loading buffer, and heated for 10 minutes at 70° C. Lysates were then separated by SDS-PAGE using 4-12% Bis-Tris gels (Life Technologies) and transferred to PVDF membranes (Millipore) for western blotting analysis. All antibodies were purchased from Cell Signaling.

[2] = test system: Caenorhabditis elegans; test: Lifespan of N2 wildtype C. elegans on NGM treatment plates containing compound; format: in vivo; set-up: mean lifespan: unit not given here; conditions: for % increase (mean lifespan): vs DMSO; for effect on C. elegans lifespan: FIGS. 1A-1C, result in words
Method: The anti-aging effects of MJX001-MJX005 were tested in the nematode Caenorhabditis elegans. Worms of the N2 wildtype strain of C. elegans were age-synchronized by performing either a timed egg lay or an egg preparation (mix <100 gravid worms in 70 μl M9 buffer, 25 μl bleach and 5 μl 10 N NaOH). Once the worms reached day 1 of adulthood, they were picked onto NGM treatment plates containing 1.5% dimethyl sulfoxide (DMSO; Sigma D8418), 49.5 μM 5-fluoro-2′-deoxyuridine (FUDR, Sigma F0503), and either […] (Sigma K401) or one of the MJX series test compounds. All plates were adjusted to pH 6.0 (i.e., the same pH as the control plates) if necessary by the addition of NaOH. Once dry, the plates were seeded with OP50 E. coli as the C. elegans food source. […] Worms were moved to new plates every 4 days. All worms were maintained in a single humidified, temperature-controlled incubator at 20° C. Lifespan curves were generated and statistical analyses performed.

[3] = test system: AMPK signaling pathway; test: Western blot of AMPK signaling in H9C2 rat cardiomyocytes; format: cell-based; conditions: H9C2 cells; for activation of AMPK signaling pathway (phosphorylation of AMPK targets ACC (S79) and ULK1 (S555)): western blot, FIGS. 2A, 2B; for activation of AMPK signaling pathway (phosphorylation of AMPK targets ACC (S79) and ULK1 (S555)) / time course of AMPK activation: 2F; for time course of AMPK activation: 15 min to 8 hr, FIGS. 2C, 2E; for activation of AMPK, dose-response: FIG. 2D
Method: as §1

[4] = test system: mTORC2; test: Western blot of mTORC2 signaling in H9C2 rat cardiomyocytes; format: cell-based; conditions: H9C2 cells, FIGS. 2C; for mTORC2 activity (phosphorylation of Akt (S473)): 2F; for time course of inhibition of mTORC2 (decreased phosphorylation of Akt (S473)): 2E
Method: as §1

[5] = test system: mTOR signaling; test: Western blot of mTOR signaling in H9C2 rat cardiomyocytes; format: cell-based; conditions: H9C2 cells; for time course of inhibition of mTOR signaling: 15 min to 8 hr, FIGS. 2C, 2E, 2F; for inhibition of mTOR signaling, dose-response: FIG. 2D
Method: as §1

[6] = test system: C57BL/6 mice; conditions: stated as known; cited from earlier work
[7] = test system: H9C2 Cells; test: [U-13C6]glucose tracing of metabolites in H9C2 cells (LC-MS); format: cell-based, rat; conditions: 24 h, FIG. 4
Method: To evaluate the metabolic pathways in use, H9C2 Cells were cultured with designated compounds and medium containing [U-^13C6]glucose for 24 h. Metabolites were extracted for LC-MS detection.

[8] = test system: C57BL/6 mice; test: Hair regrowth in shaved C57BL/6 mice, topical application; format: in vivo, mouse
Method: The effects of the compounds on mouse models were evaluated. […] Mouse dorsal hair was shaved by trimmer on week 7 and MJX002 was dissolved in Transdermal Gel at 16 mM and applied on the dorsal skin every other day. Mice were monitored for the appearance of skin pigmentation, which signals the initiation of anagen. […] (FIG. 7)

[9] = test system: H9C2 Cells; test: Proliferation of H9C2 cells; format: cell-based, rat; conditions: FIGS. 6A & 6B
[10] = 1 mM, FIG. 1C experiment, DMSO control 14.8
[11] = 2 mM, FIG. 1C experiment, DMSO control 14.8
[12] = 4 mM, FIG. 1C experiment, DMSO control 14.8
[13] = 4 mM, FIG. 8 experiment, DMSO control 15.3
[14] = 4 mM, FIG. 1A experiment, DMSO control 11.7
[15] = 4 mM, FIG. 1B experiment, DMSO control 15.3
[16] = after only 15 minutes treatment, FIG. 2C
[17] = 2 mM, FIG. 1B experiment, DMSO control 15.3

For `C/C=C1\OC(C)OC1=O` (stereo not shown) [MJX003], the “mTORC1 signaling (phosphorylation of mTORC1 targets S6K (T389), 4E-BP1 (S65), ULK1 (S757))” value (shortened to “mTORC1 signaling”) [1] was “no significant effect”, the mean lifespan [2, 10] was 14.8 and the “% increase (mean lifespan)” value ([2]; 1 mM, FIG. 1C experiment) was −0.2%. For the same compound, the mean lifespan [2, 11] was 12.5, the “% increase (mean lifespan)” value ([2]; 2 mM, FIG. 1C experiment) was −15.3% and the mean lifespan [2, 12] was 12.9. For the same compound, the “% increase (mean lifespan)” value ([2]; 4 mM, FIG. 1C experiment) was −12.7%, the “effect on C. elegans lifespan” value [2] was “decreased C. elegans lifespan” and the “phosphorylation of T172 in AMPK” value ([3]; FIG. 2A) was “Increased phosphorylation”. The “activation of AMPK signaling pathway (phosphorylation of AMPK targets ACC (S79) and ULK1 (S555))” value (“activation of AMPK signaling pathway” for short) [3] was “activate the AMPK signaling pathway”.

For `C/C=C1\OC(CCC(=O)OCC)(C(=O)OCC)OC1=O` (stereo not shown) [MJX006], the “mTORC1 signaling” value [1] was “inhibit mTORC1 and mTORC2 signaling”, the “mTORC2 activity (phosphorylation of Akt (S473))” value [4] was “inhibit mTORC1 and mTORC2 signaling” and the “time course of inhibition of mTOR signaling” value [5] was “exhibited similar kinetics; also recorded: only inhibited mTOR signaling transiently”. For the same compound, the mean lifespan ([2]; 1 mM, FIG. 8 experiment, DMSO control 15.3) was 16.2, the “% increase (mean lifespan)” value ([2]; 1 mM, FIG. 8 experiment) was 6.3% and the mean lifespan ([2]; 2 mM, FIG. 8 experiment, DMSO control 15.3) was 19.0. For the same compound, the “% increase (mean lifespan)” value ([2]; 2 mM, FIG. 8 experiment) was 24.2%, the mean lifespan [2, 13] was 17.4 and the “% increase (mean lifespan)” value ([2]; 4 mM, FIG. 8 experiment) was 13.9%. For the same compound, the “N2 C. elegans lifespan” value ([2]; all three tested doses (1, 2, 4 mM), FIG. 8, result in words) was “extended significantly”, the “time course of AMPK activation” value [3] was “highest at 15 and 30 minutes, is weaker but still evident at 1 hour, and has largely returned to baseline by 2 hours” and the “activation of AMPK signaling pathway” value [3] was “rapidly promote AMPK activity”.

In the case of “α-ketobutyric acid (2-oxobutanoic acid) [aKB, reference compound]”, the “hair loss in old C57BL/6 mice” value [6] is given as “prevents hair loss”, the “hair regrowth in mice” value [6] is given as “stimulates hair regrowth” and the mean lifespan [2, 14] is given as 17.7. For the same compound, the “% increase (mean lifespan)” value ([2]; 4 mM, FIG. 1A experiment) was 51.0%, the mean lifespan [2, 15] was 20.4 and the “% increase (mean lifespan)” value ([2]; 4 mM, FIG. 1B experiment) was 33.3%. The mean lifespan [2, 12] was 19.7, the “% increase (mean lifespan)” value ([2]; 4 mM, FIG. 1C experiment) was 33.3% and the mean lifespan [2, 13] was 19.1. For the same compound, the “% increase (mean lifespan)” value ([2]; 4 mM, FIG. 8 experiment) was 24.6%.

With `CCOC(=O)C(CC)(OCC)OC(C)=O` (stereo not shown) [MJX002] the “M2 citrate using [U-13C6]glucose as a tracer” value [7] was “decreased M2 citrate”, the “mTORC1 signaling” value [1] was “no significant effect” and the hair regrowth ([8]; 6 week old C57BL/6 mice, 16 mM in Transdermal Gel on dorsal skin every other day) was “stimulates hair regrowth”. The “skin pigmentation and hair growth” value ([8]; C57BL/6 mice, 16 mM topical every other day, after 40 days, FIG. 7) was “accelerated pigmentation and hair growth”, the mean lifespan ([2]; 100 μM, FIG. 1A experiment, DMSO control 11.7) was 11.9 and the “% increase (mean lifespan)” value ([2]; 100 μM, FIG. 1A experiment) was 1.9%. For the same compound, the mean lifespan ([2]; 300 μM, FIG. 1A experiment, DMSO control 11.7) was 13.2, the “% increase (mean lifespan)” value ([2]; 300 μM, FIG. 1A experiment) was 13.0% and the mean lifespan ([2]; 1 mM, FIG. 1A experiment, DMSO control 11.7) was 12.2. For the same compound, the “% increase (mean lifespan)” value ([2]; 1 mM, FIG. 1A experiment) was 4.2%, the mean lifespan [2, 14] was 16.4 and the “% increase (mean lifespan)” value ([2]; 4 mM, FIG. 1A experiment) was 40.0%. The “effect on C. elegans lifespan” value [2] was “dose-dependent increases in lifespan” and the “activation of AMPK signaling pathway” value [3] was “activate the AMPK signaling pathway”.

In the case of `C/C=C1\OC(CC)(C(=O)OCC)OC1=O` (stereo not shown) [MJX005], the “mTORC1 signaling” value [1] is reported as “inhibited mTORC1 signaling; also recorded: inhibits both mTORC1 and mTORC2 activity”, the “time course of inhibition of mTORC2 (decreased phosphorylation of Akt (S473))” value [4] is reported as “strongest after just 15 and 30 minutes treatment, but recovered to normal levels by 2 hr and beyond” and the “mTORC2 activity (phosphorylation of Akt (S473))” value [4] is reported as “inhibits both mTORC1 and mTORC2 activity”. For the same compound, the “inhibition of mTOR signaling, dose-response” value (from here on “inhibition … dose-response”) ([5]; 0.8 mM or lower) was “no significant effect”, the “inhibition … dose-response” value ([5]; 1.6 mM) was “modest effect” and the “inhibition … dose-response” value ([5]; 3.2 mM) was “strong effect”. For the same compound, the “time course of inhibition of mTOR signaling” value [5] was “greatly diminished by 2 hr and largely absent at 4 hr and 8 hr; also recorded: only inhibited mTOR signaling transiently”, the “inhibition of mTOR signaling” value [5, 16] was “inhibition of mTOR signaling” and the mean lifespan [2, 17] was 18.2. The “% increase (mean lifespan)” value ([2]; 2 mM, FIG. 1B experiment) was 19.1%, the mean lifespan [2, 15] was 19.6 and the “% increase (mean lifespan)” value ([2]; 4 mM, FIG. 1B experiment) was 27.7%. The “effect on C. elegans lifespan” value [2] was “dose-dependent increases in lifespan”, the “activation of AMPK compared with α-ketobutyrate” value [3] was “more potent activation of AMPK than α-ketobutyrate” and the “activation of AMPK, dose-response” value ([3]; 0.8 mM or lower) was “no significant effect”. For the same compound, the “activation of AMPK, dose-response” value ([3]; 1.6 mM) was “modest effect”, the “activation of AMPK, dose-response” value ([3]; 3.2 mM) was “strong effect” and the “time course of AMPK activation” value [3] was “greatly diminished by 2 hr and largely absent at 4 hr and 8 hr”. For the same compound, the “activation of AMPK” value [3, 16] was “strong activation of AMPK” and the “activation of AMPK signaling pathway” value [3] was “activate the AMPK pathway”.

In the case of `C/C=c1\oc(=O)/c(=C/C)oc1=O` [MJX004], the “M2 citrate using [U-13C6]glucose as a tracer” value [7] is reported as “decreased M2 citrate”, the “inhibition of mTORC1” value ([1]; at 4 and 8 hr, FIG. 2E) is reported as “sustained inhibition of mTORC1” and the “mTORC1 signaling” value [1] is reported as “inhibited mTORC1 signaling”. For the same compound, the “time course of inhibition of mTORC2 (decreased phosphorylation of Akt (S473))” value [4] was “strongest after just 15 and 30 minutes treatment, but recovered to normal levels by 2 hr and beyond”, the “time course of inhibition of mTOR signaling” value [5] was “less potent but more prolonged; also recorded: more prolonged effect on mTOR signaling” and the “effect on proliferation (inhibition), rank order” value [9] was “strongest effect on proliferation”. For the same compound, the mean lifespan ([2]; 1 mM, FIG. 1B experiment, DMSO control 15.3) was 19.7, the “% increase (mean lifespan)” value ([2]; 1 mM, FIG. 1B experiment) was 28.7% and the mean lifespan [2, 17] was 20.0. For the same compound, the “% increase (mean lifespan)” value ([2]; 2 mM, FIG. 1B experiment) was 30.9%, the mean lifespan [2, 15] was 21.1 and the “% increase (mean lifespan)” value ([2]; 4 mM, FIG. 1B experiment) was 38.0%. For the same compound, the “effect on C. elegans lifespan” value [2] was “dose-dependent increases in lifespan”, the “time course of AMPK activation” value [3] was “less potent but more prolonged” and the “activation of AMPK” value ([3]; at 4 hr, FIG. 2E) was “strong activation of AMPK”. The “activation of AMPK signaling pathway” value [3] was “activate the AMPK pathway”.

In the case of `C/C=C(\OC(C)=O)C(=O)OCC` [MJX001], the “mTORC1 signaling” value [1] is reported as “no significant effect”, the mean lifespan [2, 10] is reported as 12.9 and the “% increase (mean lifespan)” value ([2]; 1 mM, FIG. 1C experiment) is reported as −12.9%. The mean lifespan [2, 11] was 11.5, the “% increase (mean lifespan)” value ([2]; 2 mM, FIG. 1C experiment) was −22.4% and the mean lifespan [2, 12] was 11.1. For the same compound, the “% increase (mean lifespan)” value ([2]; 4 mM, FIG. 1C experiment) was −24.8%, the “effect on C. elegans lifespan” value [2] was “decreased C. elegans lifespan” and the “activation of AMPK signaling pathway” value [3] was “activate the AMPK signaling pathway”.
